Assay results published in patent US20240209022A1, “NOVEL PEPTIDE HAVING ANTI-INFLAMMATORY AND TISSUE REGENERATIVE ACTIONS” (KOREA RESEARCH INSTITUTE OF BIOSCIENCE AND BIOTECHNOLOGY, priority 2020, published 2024).

Columns and labels:
[1] = test system: animal model of muscle atrophy/muscle strength loss due to natural aging (geriatric sarcopenia); test: Geriatric sarcopenia model (natural aging): muscle strength and muscle mass; format: in vivo, C57BL/6 mice; conditions: vs PBS buffer group; for grip strength: 11th week of administration, oral 0.2 μg/150 μL; for GC (gastrocnemius) muscle weight / TA (tibialis anterior) muscle weight / soleus muscle weight: after the experiment
Procedure: The efficacy of the peptides was verified using an animal model of muscle atrophy/muscle strength loss due to natural aging (geriatric sarcopenia). At the time of administration of Amuc_1409, 80 to 83-week old C57BL/6 male mice were used. Amuc_1409 was dissolved in PBS buffer at a concentration of 2.4 μM and then orally administered to the mice by 150 μL per animal at the same time once a day for 32 weeks. To the control group, PBS buffer was orally administered in the same manner. At the 16th week of Amuc_1409 administration, aged mice were allowed to hold the wire net connected to the muscle strength probe of the grip strength meter with all four paws, and then the tail was carefully pulled backward to measure the maximum grip strength at the moment at which the mice held onto the wire net. For muscle weight, after administration, the gastrocnemius (GC), soleus, and tibialis anterior (TA) muscles from both hind paws of the aged mice of each group were carefully separated to avoid damage, and each weight was measured. Muscle weight versus body weight was calculated by correcting with the body weight of the mouse. After the end of the experiment, in order to analyze the size of muscle fibers in each group, TA muscles were fixed in 10% formalin, and frozen section samples (8 μm) were prepared to prepare slides. The prepared slides were washed with PBS buffer solution, permeabilized with 0.5% Triton X-100, blocked, and treated with primary antibody (anti-laminin). After 24 hours, a fluorescent secondary antibody (Alexa Fluor 488 Goat anti-rabbit IgG) was applied, and the slides were finally treated with DAPI for nuclear staining. The immunostained slides were subjected to photographing of muscle tissue using a confocal microscope. Using image analysis software (ImageInside), the distribution of cross-sectional area of muscle fibers was calculated for each size from a minimum of 500 μm^2 or less to 3500 μm^2 or more. Meanwhile, in order to examine the efficacy of Amuc_1409 as well as its fragments, 82- to 83-week-old C57BL/6 male mice were used. PEP001 was dissolved in PBS buffer at a concentration of 2.4 μM and then orally administered to the mice by 150 μL per animal at the same time once a day for 10 weeks. To the control group, PBS buffer was orally administered in the same manner. At the 10th week of PEP001 administration, the maximum grip strength and muscle weight were calculated in the same manner as the measurement in Amuc_1409. At the end of the experiment, a part of the GC muscle excised was homogenized with Trizol to extract RNA. Reverse transcriptase was added to the obtained RNA and reacted to synthesize cDNA, and SYBR Green and primers were added to perform quantitative real-time PCR (RT-qPCR). The gene expression level of insulin-like growth factor (IGF-1) involved in protein synthesis in muscle cells was then quantified. In addition, in order to confirm the efficacy of the novel tetrapeptides and tripeptides PEP006 to PEP013, the improvement efficacy on geriatric sarcopenia was examined using naturally aged 76 to 78-week old female C57BL/6J mice. For an additional 12 weeks, the novel tetrapeptides PEP006, PEP007, PEP008, PEP009, and PEP010 or novel tripeptides PEP011, PEP012, and PEP013 were each dissolved in PBS buffer at a concentration of 0.2 μg/150 μL and then orally administered to the naturally aged mice by 150 μL per mouse at the same time until the end of the test. To the control group, PBS buffer was orally administered in the same manner. For all animals, general symptoms were observed immediately before administration at the start of administration, and grip strength was measured at the 11th week of administration in order to analyze muscle strength attenuation. […]

[2] = test system: C57BL/6J naturally aged mice; test: Skin aging in naturally aged mice (skin H&E); format: in vivo, C57BL/6J mice; conditions: oral, vs PBS buffer group
Procedure: As an animal model of aging, 19- to 22-month old C57BL/6J naturally aged mice were used. Solid feed and water were sufficiently supplied until the day of the experiment, the environment was maintained at a temperature of 22° C. 2° C., humidity of 55%±15%, and a 12-hour light/dark cycle, and the mice were used for the experiment. Amuc_1409 and PEP001 were dissolved in PBS buffer at 10 μg/150 μL and 0.7 μg/150 μL, respectively, and then orally administered to the naturally aged mice by 150 μL per animal at the same time once a day for […], and novel tetrapeptides PEP006, PEP007, PEP008, PEP009, and PEP010 and novel tripeptides PEP011, PEP012, and PEP013 were each dissolved in PBS buffer at a concentration of 0.2 μg/150 μL and then orally administered to the naturally aged mice by 150 μL per animal at the same time once a day for 10 weeks. To the control group, PBS buffer was orally administered in the same manner.
On the day to be the 10th week of administration, a part of the tissue was excised from the back of the mouse and fixed in 10% formalin for 24 hours or more for histopathological analysis.
The fixed skin tissue was embedded in paraffin to prepare a 5 μm-thick section, and the skin section was H&E-stained with hematoxylin and eosin to analyze the skin epidermis thickness and the number of hair follicles.

[3] = test system: ConA-induced acute hepatitis model; test: ConA-induced acute hepatitis model; format: in vivo, C57BL/6J mice; conditions: plasma, 9 hours after ConA; vs PBS buffer group
Procedure: An acute hepatitis model was induced by dissolving ConA (concanavalin A) in PBS buffer (phosphate buffered saline) at 1.5 mg/mL and injecting the solution into 8-week-old specific pathogen free (SPF) male C57BL/6J mice through the tail vein in proportion to the mouse body weight based on 100 μL/10 g. Amuc_1409 or PEP001, PEP002, PEP003, PEP004, or PEP005 was dissolved in PBS buffer at a concentration of 6.7 μM from 3 days before ConA administration, and PEP007, PEP008, PEP009, or PEP010 was dissolved in PBS buffer at a concentration of 0.2 μg/150 μL from 3 days before ConA administration, and Amuc_1409 was injected into the mouse peritoneal cavity once a day at the same time by 210 μL and PEP001 to PEP010 by 150 μL, and intraperitoneally injected additionally one time 30 minutes before ConA injection, and the experiment was terminated 9 hours after ConA intravenous injection. Into the control group, PBS buffer was intravenously injected in the same manner. At the end of the experiment 9 hours after ConA intravenous injection, blood was collected from the orbital venous plexus using a heparin-treated capillary tube, and the collected blood was immediately centrifuged at 10,000 rpm (4° C.) for 10 minutes to separate plasma and then subjected to the analysis of alanine aminotransferase (ALT) and aspartate aminotransferase (AST), which are indicators of liver damage, using an automatic blood biochemical analyzer (Beckman Coulter AU480 automatic analyzer, Beckman Coulter). The liver was harvested, a part of the liver was fixed in 10% NBF at room temperature for 24 hours or more and then embedded in paraffin to prepare a 5 μm-thick section, and the section was stained with hematoxylin and eosin (H&E).

Substance: AIS [PEP013]
- grip strength [1]: significantly increased
- GC (gastrocnemius) muscle weight [1]: tended to increase
- TA (tibialis anterior) muscle weight [1]: tended to increase
- soleus muscle weight [1]: tended to increase
- number of hair follicles [2]: tended to increase
- thickness of the skin epidermis [2]: increased close to a significant level

Substance: AVSSIKGAY (PEP001)
- ALT [3]: decreased close to a significant level
- AST [3]: decreased close to a significant level
- muscle strength (grip strength) ([1]; 10th week of administration, oral): significantly increased
- IGF-1 gene expression in GC muscle ([1]; 10th week of administration): tended to increase
- GC (gastrocnemius) muscle weight [1]: significantly increased
- TA (tibialis anterior) muscle weight [1]: increased
- soleus muscle weight [1]: significantly increased
- thickness of the skin epidermis [2]: significantly increased

Substance: AQS [PEP011]
- grip strength [1]: significantly increased
- GC (gastrocnemius) muscle weight [1]: tended to increase
- TA (tibialis anterior) muscle weight [1]: tended to increase
- soleus muscle weight [1]: tended to increase
- thickness of the skin epidermis [2]: significantly increased

Substance: VGAY (PEP010)
- ALT [3]: significantly decreased
- AST [3]: decreased close to a significant level
- grip strength [1]: significantly increased
- GC (gastrocnemius) muscle weight [1]: tended to increase
- TA (tibialis anterior) muscle weight [1]: tended to increase
- soleus muscle weight [1]: tended to increase
- number of hair follicles [2]: tended to increase
- thickness of the skin epidermis [2]: significantly increased

Substance: IGAY (PEP008)
- ALT [3]: tended to decrease
- grip strength [1]: significantly increased
- GC (gastrocnemius) muscle weight [1]: tended to increase
- TA (tibialis anterior) muscle weight [1]: tended to increase
- soleus muscle weight [1]: tended to increase
- number of hair follicles [2]: tended to increase
- thickness of the skin epidermis [2]: significantly increased

Substance: RGAY (PEP007)
- ALT [3]: significantly decreased
- AST [3]: tended to decrease
- grip strength [1]: increased to a significant level
- GC (gastrocnemius) muscle weight [1]: tended to increase
- TA (tibialis anterior) muscle weight [1]: tended to increase
- soleus muscle weight [1]: increased to a significant level
- number of hair follicles [2]: tended to increase
- thickness of the skin epidermis [2]: significantly increased

Substance: AGS [PEP012]
- grip strength [1]: significantly increased
- GC (gastrocnemius) muscle weight [1]: tended to increase
- TA (tibialis anterior) muscle weight [1]: tended to increase
- soleus muscle weight [1]: tended to increase
- number of hair follicles [2]: tended to increase
- thickness of the skin epidermis [2]: significantly increased

Substance: SGAY (PEP009)
- ALT [3]: tended to decrease
- AST [3]: tended to decrease
- grip strength [1]: significantly increased
- GC (gastrocnemius) muscle weight [1]: tended to increase
- TA (tibialis anterior) muscle weight [1]: tended to increase
- soleus muscle weight [1]: tended to increase
- number of hair follicles [2]: tended to increase
- thickness of the skin epidermis [2]: significantly increased

Substance: AGAY (PEP006)
- grip strength [1]: significantly increased
- GC (gastrocnemius) muscle weight [1]: tended to increase
- TA (tibialis anterior) muscle weight [1]: tended to increase
- soleus muscle weight [1]: tended to increase
- number of hair follicles [2]: tended to increase
- thickness of the skin epidermis [2]: significantly increased
